Assay results as given in the supplement of paper PMC11061612.

How the values were obtained:
Experiment in all cases: Bliss excess, mean over the matrix (fraction); higher = more synergy
[1] = tested on: BT-474 (Breast Carcinoma)
Outline: (§1)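 Cell lines grown in DMEM/F12 or RPMI with 10% FBS were plated in 1536-well plates and held 24 hours at 37°C, 5% CO2 before 72 hours of exposure to two-drug dose matrices, with DMSO typically at 0.2%. CellTiter-Glo 2.0 luminescence gave viability, which was converted to inhibition. Vehicle wells were set to 0 and blank wells to 1. Combination Emax is the second-highest inhibition in the matrix, and Bliss excess is the observed combination effect minus the expected EA + EB − EA·EB, where EA and EB are the single-agent effects.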

[2] = tested on: CAL-85-1 (Breast Carcinoma)
Outline: as §1

[3] = tested on: DK-MG (Glioblastoma)
Outline: as §1

[4] = tested on: Daudi (Burkitt's Lymphoma)
Outline: as §1

[5] = tested on: GRANTA-519 (B-Cell Non-Hodgkin's Lymphoma)
Outline: as §1

[6] = tested on: HT-144 (Melanoma)
Outline: as §1

[7] = tested on: JJN-3 (Plasma Cell Myeloma)
Outline: as §1

[8] = tested on: MDA-MB-175-VII (Breast Carcinoma)
Outline: as §1

[9] = tested on: NCI-H1648 (Lung Adenocarcinoma)
Outline: as §1

[10] = tested on: NCI-H1944 (Lung Adenocarcinoma)
Outline: as §1

[11] = tested on: NCI-H2009 (Lung Adenocarcinoma)
Outline: as §1

[12] = tested on: NCI-H2170 (Squamous Cell Lung Carcinoma)
Outline: as §1

[13] = tested on: NCI-H2452 (Mesothelioma)
Outline: as §1

[14] = tested on: OVKATE (Ovarian Carcinoma)
Outline: as §1

[15] = tested on: RPMI-8402 (T-Lymphoblastic Leukemia)
Outline: as §1

[16] = tested on: SBC-3 (Small Cell Lung Carcinoma)
Outline: as §1

[17] = tested on: SK-MEL-24 (Melanoma)
Outline: as §1

[18] = tested on: SNU-1 (Gastric Carcinoma)
Outline: as §1

[19] = tested on: SUP-HD1 (Hodgkin's Lymphoma)
Outline: as §1

[20] = tested on: TOV-21G (Ovarian Carcinoma)
Outline: as §1

Compound | Bliss excess [1] | Bliss excess [2] | Bliss excess [3] | Bliss excess [4] | Bliss excess [5] | Bliss excess [6] | Bliss excess [7] | Bliss excess [8] | Bliss excess [9] | Bliss excess [10] | Bliss excess [11] | Bliss excess [12] | Bliss excess [13] | Bliss excess [14] | Bliss excess [15] | Bliss excess [16] | Bliss excess [17] | Bliss excess [18] | Bliss excess [19] | Bliss excess [20]
CS(=O)(=O)CCNCc1ccc(-c2ccc3ncnc(Nc4ccc(OCc5cccc(F)c5)c(Cl)c4)c3c2)o1 [Lapatinib] + C[C@@H](Oc1cc(-c2cnn(C3CCNCC3)c2)cnc1N)c1c(Cl)ccc(F)c1Cl [Crizotinib] (first compound max 10 µM, 7x7, partner max 10 µM) | 0.0284 | 0.0028 | -0.0556 | -0.0179 | 0.0192 | -0.0643 | -0.0287 | -0.0129 | 0.0036 | 0.015 | -0.0506 | -0.0026 | -0.0932 | -0.0448 | -0.0375 | -0.0761 | -0.118 | 0.0039 | -0.0579 | -0.0289
COc1nnc2ccc(N3CCC(c4ccc(OCCN5CCN(C)C(=O)[C@H]5C)cc4)CC3)nn12 [AZD5153] + C[C@@H]1COCCN1C2=NC(=NC(=C2)C3(CC3)[S@](=N)(=O)C)C4=C5C=CNC5=NC=C4 [AZD6738] (first compound max 1 µM, 7x7, partner max 10 µM) | 0.0788 | -0.006 | -0.0073 | 0.0365 | 0.0096 | 0.0637 | -0.0394 | 0.0118 | -0.0572 | 0.0234 | 0.081 | 0.0964 | 0.0045 | -0.0027 | -0.0209 | -0.032 | -0.0037 | 0.0228 | -0.0281 | -0.0018
COc1cccc(OCCCN)c1-c1cc(Nc2cnc(C#N)cn2)n[nH]1 [Prexasertib] + C=CCn1c(=O)c2cnc(Nc3ccc(N4CCN(C)CC4)cc3)nc2n1-c1cccc(C(C)(C)O)n1 [AZD1775] (first compound max 1 µM, partner max 1 µM) | -0.0223 | 0.124 | -0.0125 | 0.0677 | -0.0138 | 0.0666 | 0.085 | 0.106 | 0.0286 | 0.077 | 0.0914 | 0.101 | 0.0473 | -0.0665 | 0.0389 | 0.146 | 0.112 | 0.084 | 0.0009 | -0.0089
CN(C)CCCOc1ccc(-c2ccc3ncc4c(c3c2)n(C2CCOCC2)c(=O)n4C)cn1 [AZD0156] + C=CCn1c(=O)c2cnc(Nc3ccc(N4CCN(C)CC4)cc3)nc2n1-c1cccc(C(C)(C)O)n1 [AZD1775] (first compound max 1 µM, partner max 1 µM) | -0.0647 | -0.0155 | -0.0003 | -0.0243 | -0.0268 | -0.0268 | -0.0271 | -0.0589 | -0.0468 | -0.0218 | -0.0695 | 0.0914 | -0.0253 | -0.0601 | 0.0026 | -0.0451 | -0.0255 | -0.003 | -0.0392 | 0.0044
CC(=O)Nc1cccc(-n2c(=O)n(C3CC3)c(=O)c3c(Nc4ccc(I)cc4F)n(C)c(=O)c(C)c32)c1 [Trametinib] + Cc1nc(-c2cn3c(n2)-c2ccc(-c4cnn(C(C)(C)C(N)=O)c4)cc2OCC3)n(C(C)C)n1 [Taselisib] (first compound max 1 µM, 7x7, partner max 10 µM) | 0.0002 | 0.213 | 0.102 | 0.0217 | -0.0007 | 0.0234 | 0.204 | 0.232 | 0.0655 | 0.175 | 0.151 | 0.029 | 0.101 | 0.113 | 0.0185 | 0.0858 | 0.012 | 0.202 | 0.0392 | -0.051
CN(C)CCCOc1ccc(-c2ccc3ncc4c(c3c2)n(C2CCOCC2)c(=O)n4C)cn1 [AZD0156] + C[C@@H]1COCCN1C2=NC(=NC(=C2)C3(CC3)[S@](=N)(=O)C)C4=C5C=CNC5=NC=C4 [AZD6738] (first compound max 1 µM, 7x7, partner max 10 µM) | -0.0416 | 0.0042 | 0.0346 | -0.0031 | -0.0335 | -0.0484 | 0.161 | -0.0122 | 0.005 | 0.0062 | -0.0045 | 0.0947 | -0.0547 | -0.0189 | 0.0028 | 0.0039 | -0.0159 | 0.0461 | -0.0232 | 0.025
CC(=O)c1c(C)c2cnc(Nc3ccc(N4CCNCC4)cn3)nc2n(C2CCCC2)c1=O [Palbociclib] + CC1(C)CCC(CN2CCN(c3ccc(C(=O)NS(=O)(=O)c4ccc(NCC5CCOCC5)c([N+](=O)[O-])c4)c(Oc4cnc5[nH]ccc5c4)c3)CC2)=C(c2ccc(Cl)cc2)C1 [Venetoclax] (first compound max 10 µM, 7x7, partner max 1 µM) | -0.0444 | -0.0457 | 0.0131 | 0.0137 | 0.0884 | -0.0356 | -0.0357 | -0.0174 | -0.0254 | 0.0257 | -0.0543 | 0.0227 | -0.0188 | -0.0484 | -0.0777 | -0.038 | -0.0586 | 0.0006 | -0.0641 | -0.025
CCN(CCO)CCCOc1ccc2c(Nc3cc(CC(=O)Nc4cccc(F)c4)[nH]n3)ncnc2c1 [AZD2811] + C=CCn1c(=O)c2cnc(Nc3ccc(N4CCN(C)CC4)cc3)nc2n1-c1cccc(C(C)(C)O)n1 [AZD1775] (first compound max 1 µM, partner max 1 µM) | -0.0442 | -0.0258 | 0.0373 | 0.0733 | -0.013 | 0.0516 | -0.0233 | -0.0427 | -0.0388 | 0.0422 | 0.0477 | 0.051 | -0.0387 | -0.0565 | -0.0544 | 0.11 | -0.0378 | 0.0679 | -0.0238 | 0.0317
CCc1c2c(nc3ccc(O)cc13)-c1cc3c(c(=O)n1C2)COC(=O)[C@]3(O)CC [SN-38] + CN(C)CCCOc1ccc(-c2ccc3ncc4c(c3c2)n(C2CCOCC2)c(=O)n4C)cn1 [AZD0156] (first compound max 0.3 µM, 7x7, partner max 1 µM) | -0.047 | -0.0349 | -0.0007 | 0.0078 | -0.0359 | -0.0219 | 0.0183 | -0.0043 | -0.0451 | -0.0343 | 0.126 | 0.0296 | -0.0197 | -0.0763 | 0.073 | -0.0894 | 0.0267 | 0.0303 | -0.0579 | -0.0349
Cn1cnc2c(F)c(Nc3ccc(Br)cc3Cl)c(C(=O)NOCCO)cc21 [Selumetinib] + C=CCn1c(=O)c2cnc(Nc3ccc(N4CCN(C)CC4)cc3)nc2n1-c1cccc(C(C)(C)O)n1 [AZD1775] (first compound max 10 µM, partner max 1 µM) | -0.0466 | -0.063 | -0.0548 | -0.0995 | 0.03 | -0.0127 | -0.0188 | -0.0005 | -0.0704 | -0.0481 | 0.0308 | -0.0838 | -0.0288 | -0.0524 | -0.0344 | -0.0655 | -0.0315 | -0.005 | -0.0188 | -0.0891
COc1nnc2ccc(N3CCC(c4ccc(OCCN5CCN(C)C(=O)[C@H]5C)cc4)CC3)nn12 [AZD5153] + Cc1c2c(nn1C)CSCc1cc(n(C)n1)CSc1cc(c3ccccc3c1)OCCCc1c(C(=O)O)n(C)c3c-2c(Cl)ccc13 [AZD5991] (first compound max 1 µM, 7x7, partner max 1 µM) | -0.0012 | -0.0157 | -0.0037 | 0.0407 | -0.0164 | -0.0094 | -0.0268 | -0.0015 | -0.0712 | -0.0461 | -0.0271 | -0.0283 | -0.0265 | -0.0209 | 0.0279 | -0.0503 | -0.003 | 0.0194 | -0.0414 | -0.0337
COc1nnc2ccc(N3CCC(c4ccc(OCCN5CCN(C)C(=O)[C@H]5C)cc4)CC3)nn12 [AZD5153] + CCN(CCO)CCCOc1ccc2c(Nc3cc(CC(=O)Nc4cccc(F)c4)[nH]n3)ncnc2c1 [AZD2811] (first compound max 1 µM, 7x7, partner max 1 µM) | -0.0197 | -0.0411 | -0.13 | 0.0303 | 0.0771 | 0.0216 | 0.0098 | 0.0618 | -0.0494 | -0.0185 | -0.0155 | 0.0103 | -0.0574 | -0.0668 | -0.031 | -0.0225 | -0.102 | 0.0024 | -0.0586 | -0.0249
CN(C)CCCOc1ccc(-c2ccc3ncc4c(c3c2)n(C2CCOCC2)c(=O)n4C)cn1 [AZD0156] + O=C(c1cc(Cc2n[nH]c(=O)c3ccccc23)ccc1F)N1CCN(C(=O)C2CC2)CC1 [Olaparib] (first compound max 3 µM, partner max 3 µM) | -0.0189 | -0.039 | 0.0012 | 0.0672 | 0.0079 | 0.0767 | 0.0264 | -0.0365 | 0.0271 | 0.106 | 0.16 | 0.0947 | 0.12 | 0.0008 | 0.244 | 0.206 | 0.0037 | 0.032 | -0.039 | -0.0054
COc1cccc(OCCCN)c1-c1cc(Nc2cnc(C#N)cn2)n[nH]1 [Prexasertib] + CN(C)CCCOc1ccc(-c2ccc3ncc4c(c3c2)n(C2CCOCC2)c(=O)n4C)cn1 [AZD0156] (first compound max 1 µM, 7x7, partner max 1 µM) | 0.0023 | -0.0157 | -0.0104 | -0.0041 | -0.035 | -0.0135 | 0.0057 | -0.0173 | -0.0136 | 0.0331 | 0.019 | 0.0156 | -0.0554 | -0.069 | -0.0172 | -0.0046 | 0.0017 | -0.0201 | -0.0442 | 0.0588
Cn1cnc2c(F)c(Nc3ccc(Br)cc3Cl)c(C(=O)NOCCO)cc21 [Selumetinib] + CCN(CCO)CCCOc1ccc2c(Nc3cc(CC(=O)Nc4cccc(F)c4)[nH]n3)ncnc2c1 [AZD2811] (first compound max 10 µM, 7x7, partner max 1 µM) | -0.0419 | 0.0353 | -0.0736 | 0.0504 | 0.0288 | 0.0172 | 0.0552 | 0.0109 | 0.0048 | 0.068 | -0.0059 | -0.0566 | -0.0726 | -0.0349 | 0.0136 | -0.0518 | -0.0628 | 0.0767 | 0.0251 | 0.0139
